Measured values reported in PMC8061427 (Science translational medicine, 2020).
Values joined by “and” are separate entries in the source; they are usually repeats but may differ in a detail not shown here. Identical values can stand only once. Where no end group is shown, it is not given here. The star is where a group is joined. Myristoyl = CCCCCCCCCCCCCC(=O)*

How the values were obtained:
[1] = test system: C57BL/6 mice; assay: FeCl3-induced mouse carotid artery thrombosis model; type: in vivo; conditions: for effect on occlusive thrombus formation: 7.5% FeCl3
[2] = test system: mice; assay: Mouse tail bleeding time test; conditions: cangrelor 30 μg/kg; for effect on mouse tail bleeding time: Fig. 5, M3mP6 HLPN 5 or 10 μmol/kg, high dose aspirin 36 mg/kg i.p., clopidogrel 4 mg/kg, ticagrelor 3 mg/kg
[3] = test system: mice; assay: Laser-induced cremaster arteriolar thrombosis model in mice; type: in vivo, mouse; conditions: pre-injected intravenously; M3mP6 HLPN 10 μmol/kg, cangrelor 30 μg/kg; 27 injury sites each
[4] = no reference given; cited from earlier work
[5] = lipid micellar formulation; cited from earlier work

## CC(=O)Oc1ccccc1C(=O)O [aspirin]
[1]; Fig. 4B, M3mP6 HLPN 5 μmol/kg, aspirin 36 mg/kg i.p. 1 hour before
  effect on occlusive thrombus formation: no obvious effect
[2]
  effect on mouse tail bleeding time: increased tail bleeding time

## CSCCNc1nc(SCCC(F)(F)F)nc2c1ncn2[C@@H]1O[C@H](COP(=O)(O)OP(=O)(O)C(Cl)(Cl)P(=O)(O)O)[C@@H](O)[C@H]1O [cangrelor]
[3]
  effect on platelet thrombus formation: potently inhibiting platelet thrombus formation
[1]; Fig. 4E, cangrelor 30 μg/kg retro-orbital, M3mP6 HLPN 10 μmol/kg
  overall effect on occlusive thrombosis: moderately better than M3mP6 HLPN
[2]
  effect on mouse tail bleeding time: increased tail bleeding time
[2]; post-injury injection, M3mP6 HLPN 10 μmol/kg
  tail bleeding time: prolonged tail bleeding time
[4]
  plasma half-life: 3 to 6 min

## COC(=O)[C@H](c1ccccc1Cl)N1CCc2sccc2C1 [clopidogrel]
[1]; Fig. 4C, M3mP6 HLPN 10 μmol/kg, clopidogrel 4 mg/kg oral 2 hours before, ticagrelor 3 mg/kg oral 2 hours before
  effect on occlusive thrombus formation: delayed occlusive thrombus formation following FeCl3-induced injury but was less effective than M3mP6 HLPN

## CCCSc1nc(N[C@@H]2C[C@H]2c2ccc(F)c(F)c2)c2nnn([C@@H]3C[C@H](OCCO)[C@@H](O)[C@H]3O)c2n1 [ticagrelor]
[2]
  effect on mouse tail bleeding time: increased tail bleeding time

## Myristoyl-FEEERA [mP6]
[5]
  peptide concentration achieved in lipid micellar suspension: 1 mM and < 1 mM
